For one assay, the target named is T1, CXCR4-CXCL12 binding (Homo sapiens, UniProt P48061).
T1 construct: expressed in transfected cells
Description: Inhibition of CXCL12-TR binding to CXCR4-GFP (FRET). The settings on record: 10 μM. How it is done: Study of the changes of CXCR4-CXCL12 binding was achieved by the energy transfer technique^10,11.
Binding of Texas red-labelled CXCL12 with CXCR4-GFP fused receptor^11 induces fluorescence resonance energy transfer (FRET), which can be monitored by the reduction of GFP fluorescence emission. The characterization of CXCL12 neutraligands was evaluated in two conditions, differing by the sequence of addition of molecules. Reduction of GFP fluorescence emission was more important when neutraligands were preincubated (30 min) […] prior to the addition to cells.
The CXCR4 antagonist, T134 (20 μM) was used as a control in both incubation protocols. Data obtained were consistent with a binding to the chemokine and not to its receptor. Consequently, all selected compounds are indeed CXCL12 chemokine neutraligands and behave as chalcone-4. The neutralizing properties of the compounds are thus confirmed.

The subject of assay [1] is Balb/c mice sensitized to ovalbumin. Description: 8-day murine model of allergic eosinophilic airway inflammation. It counts as in vivo, mouse. To be noted: for IC50 on eosinophil recruitment: intranasal, 2 h before each challenge, in PBS/Cdx, bronchoalveolar lavage 24 h after last challenge. On the procedure: In vivo dose-response effect of a topical treatment with chalcone-4 and compound (1) of formula (I) in an 8-day mouse model of allergic eosinophilic airway inflammation. Balb/c mice were sensitized to ovalbumin (OVA, 50 μg) in the presence of 2 mg alum (IP. injection on days 0, 1 and 2) and challenged with OVA (10 μg) or saline (IN.) on days 6, 7 and 8. Increasing doses of chalcone-4 (gray line) or compound (1) (black line) solubilized in 10% hydroxypropyl-B-cyclodextrine (Cdx) were administered by the intranasal route 2 h before each challenge. Bronchoalveolar lavage was performed 24 h after the last challenge, and inflammatory cells including eosinophils counted. The percentage of inhibition of eosinophil recruitment is shown. Data points are means and bars are S.E.M. values of n=6 determinations.
The in vivo activity of compound (1) was tested in the 8-day murine model of allergic eosinophilic airway inflammation previously described^13.
Briefly, Balb/c mice were sensitized to ovalbumin (OVA) and challenged 3 times with OVA or saline at 24 h interval. Treatments with each compound (300 nmol/kg in 10% PBS/Cdx) were administered by the intranasal route 2 h before each challenge. Bronchoalveolar lavage was performed 24 h after the last challenge, and eosinophil, macrophage, neutrophil and lymphocyte numbers quantified.
Using the same protocol, the dose-response of compound (1) and chalcone-4 was evaluated on eosinophil recruitment after intranasal administration (FIG. 1).

In assay [2] the test system is Balb/c mice topically administered MC903. Description: Murine model of atopic dermatitis induced by MC903. The class given is in vivo, mouse. The settings on record: 350 μmol/kg topical in acetone/olive oil, 2 h before each MC903 application, D1-D13. How it is done:
FIG. 2A. In vivo effect of a topical treatment with chalcone 4 and compound (1). Mouse ears were treated with MC903 (calcipotriol, 2 nmol/ear or 4 nmol/ear) or its solvent (ethanol EtOH) together with 350 μmol/kg chalcone 4 (upper row of images) or compound (1) (lower row of images) or solvent (acetone/olive oil 50/50, AOO). Chalcone 4 and compound (1) were dissolved in AOO and administered topically 2 h before each MC903 application. MC903 was dissolved in EtOH and topically applied.
FIG. 2B. Increase in ear thickness over time (D1-D13) was determined with a caliper on animals treated with MC903 or solvent (EtOH), and compound (1) or solvent (AOO) as described for FIG. 2A. Data points are means and bars are S.E.M. values of n=6 determinations.
FIG. 2C. Increase in ear thickness over time (D1-D13) was determined with a caliper on animals treated with MC903 or solvent (EtOH) and […] or solvent (AOO). Data points are means and bars are S.E.M. values of n=6 determinations.
The in vivo activity of compound (1) was tested in a murine model of atopic dermatitis as previously described (Zhang et al, Proc Nat Acad Si USA 2009, 106, 1536-41). Briefly, Balb/c mice were topically administered with a vitamin D analogue, MC903 (2 or 4 nmol/ear) every other day for 13 days. […]

In assay [3] the test system is Balb/c mice administered LPS. Description: LPS-induced mouse model of neutrophilic airway inflammation (COPD). It counts as in vivo. The settings on record: 350 μmol/kg i.p. in 1% CMC, 2 h before LPS; lavage 24 h after LPS. On the procedure: In vivo effect of a systemic treatment with chalcone-4 or compound (1) in a LPS-induced mouse model of neutrophilic airway inflammation. Balb/c mice were administered intranasally with LPS (1 μg, white block) or saline (control). Chalcone-4 (gray block) or compound (1) (black block) (350 μmol/kg each) suspended in 1% CMC or solvent (CMC alone) were administered intraperitoneally 2 h before LPS. Neutrophil recruitment is shown, inhibited by chalcone 4 and compound (1). Data points are means and bars are S.E.M. values of n=6 determinations.
The in vivo activity of compound (1) was tested in the murine model of neutrophilic airway inflammation induced by lipopolysaccharide (LPS) as previously described (Flacher et al, ACS Chem Biol. 2015, 10:2697-705)^14.
Briefly, Balb/c mice were administered intranasally with LPS (lipopolysaccharide from E. coli, O55B5, 1 μg, Sigma Aldrich) or saline. Treatments with (1) or Chalcone-4 (350 μmol/kg) in 1% CMC (carboxymethylcellulose) were administered by the intraperitoneal route 2 h before LPS instillation. Bronchoalveolar lavage was performed 24 h after LPS, and neutrophil, lymphocyte, eosinophil and macrophage numbers quantified.

“Also recorded” adds a separate entry of the source.

In general, inhibition refers to the drop in the measured response relative to a control, in per cent.

T1 sequence (P48061 22-89 limits assumed): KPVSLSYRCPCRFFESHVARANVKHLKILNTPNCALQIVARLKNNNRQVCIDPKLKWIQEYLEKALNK

Turning to `COc1cc(/C=C/C(=O)c2ccc(Cl)cc2)ccc1O` [Chalcone-4, (E)-1-(4-Chlorophenyl)-3-(4-hydroxy-3-methoxyphenyl)prop-2-en-1-one, reference compound], at CXCR4-CXCL12 binding (Table 3), the inhibition at 10 µM was 96 ± 2%. Also, in assay [1], the “IC50 on eosinophil recruitment” value was “higher than 500 nmol/kg”. The “Atopic response to MC903 (ear thickness)” value in assay [2] is “totally abolished the atopic response to MC903”. The “Inhibition of neutrophil recruitment” value in assay [3] came to 30%.
In the case of `COc1cc(-c2cc(-c3ccc(Cl)cc3)nc(=O)[nH]2)ccc1O` [compound (1), 4-(4-Chlorophenyl)-6-(4-hydroxy-3-methoxyphenyl)pyrimidin-2(1H)-one], the results for the inhibition at 10 µM on CXCR4-CXCL12 binding (Table 2), at CXCR4-CXCL12 binding (Table 3) and on CXCR4-CXCL12 binding (Table 4) were 92 ± 5%, 76 ± 5% and 76 ± 5%, respectively. In addition, the Recruitment of eosinophils result in assay [1] (300 nmol/kg, intranasal route, n=6) is listed as “inhibits the recruitment of eosinophils”. The “IC50 on eosinophil recruitment” value in assay [1] was determined as 300 nmol/kg. The “Atopic response to MC903 (ear thickness)” value in assay [2] was “inhibits atopic dermatitis induced by MC903; also recorded: totally abolished the atopic response to MC903”. Moreover, the “Inhibition of neutrophil recruitment” value in assay [3] turned out to be 43%.

For the origin of these results see US11046657B2, “Pyrimidinone derivatives and uses thereof to neutralize the biological activity of chemokines” (Centre National de la Recherche Scientifique (CNRS), priority 2016, dated 2021).
